The source of these data is publication PMC9499324, “Glycyrrhizic Acid Derivatives Bearing Amino Acid Residues in the Carbohydrate Part as Dengue Virus E Protein Inhibitors: Synthesis and Antiviral Activity” (International Journal of Molecular Sciences, 2022).

The test system of one test is DENV2 CprME/JEV SRIPs. In words: E protein-mediated attachment assay with chimeric DENV2 CprME/JEV SRIPs on Vero E6 cells. Particulars: Dengue virus, DENV2, Vero C1008, 1 h, read-out: IC50 of E-mediated attachment against DENV2 CprME/JEV SRIPs. It is filed as cell-based, Dengue virus type 2. The method, then:
(§1) Figure 6 Attachment inhibition of chimeric DENV2 CprM-E/JEV and wild-type JEV SRIPs by active GL conjugates. Vero E6 cells were pre-cooled and incubated with freshly prepared mixtures of DENV2 CprM-E/JEV or wild-type JEV SRIPs, with active GL derivatives 3 (A), 6 (B), 11 (C), and 21 (D) at 4 °C for 1 h, respectively. After the removal of the mixtures, the cells were kept at 37 °C for 18 h and then an immunofluorescent assay with anti-JEV NS5 antibodies plus DAPI staining was performed. Finally, the inhibition percentage of SRIP attachment infectivity was measured as follows: 1-(percentage of JEV NS5 positivity in treated cells/percentage of JEV NS5 positivity in mock-treated cells). * p < 0.05; *** p < 0.001 compared with untreated, infected cells.
(§2) DNA-launched cytomegaloviruses (CMV) promoter-driven JEV and ZIKV replicons had been constructed, as described in our prior reports. […] After the removal of the mixture (the compound and SRIP), the cells were incubated at 37 °C for 18 h, and then were analyzed by immunofluorescent assay with anti-JEV NS3 and anti-ZIKV NS5 antibodies, respectively, plus DAPI staining for determining the residual infectivity of wild-type and chimeric SRIPs, as described above.

The test system of the next test is wild-type JEV SRIPs. Briefly: Attachment assay with wild-type JEV SRIPs on Vero E6 cells. It counts as cell-based, Japanese encephalitis virus. Particulars: 4 °C for 1 h. The method, then:
as §1, §2

The next test has as its system DENV2. Briefly: DENV2 yield reduction assay (TCID50) in Vero E6 cells. It counts as cell-based, Dengue virus type 2. As to the method:
Ten-fold serial dilutions of the cultured media of treated/infected cells harvested in the antiviral potency assay were applied to a monolayer of Vero E6 cells in the 96-well plates. After 96-h incubation, the number of CPE in each well of the dilution was calculated, and the indicated dilution with a 50% positivity rate of CPE in the cell culture was expressed as the […] (50%) tissue culture infectious dose (TCID50).

The test system of the next test is DENV1 and DENV2. Briefly: DENV infectivity inhibition, summary over DENV1 and DENV2 in Vero E6 and A549 cells. It counts as cell-based, Dengue virus. To be noted: read-out: IC50 in DENV infectivity (range over assays). The text has this:
[…] In CPE and infectivity reduction assays, […], and then photographed by microscope for examining the levels of DENV2-induced CPE in infected cells treated with or without GL conjugate. Meanwhile, the cells were further performed using immunofluorescence assay (IFA) with anti-DENV NS4B antibodies (GeneTex, Inc., Hsinchu, Taiwan) and anti-rabbit IgG antibodies conjugated with AF555 (ThermoFisher, Waltham, MA, USA) plus DAPI (4′,6-diamidino-2-phenylindole) nuclear staining. Finally, the DENV-2 infectivity was measured according to the ratio of DENV NS4B-positive cells to DAPI-stained cells in the well of mock-treated or treated cells, as described in [45, 59, 60].

Setting [1] is: Dengue virus, DENV2, Vero C1008, 96 h, read-out: IC50 on the viral yield of DENV2, Vero E6 cells, TCID50 assay, 96 h.
Setting [2] is: Dengue virus, range over DENV1 and DENV2, Vero E6 and A549 cells.

Structures are written as SMILES. Read-outs that look alike come from different tables or passages of the source.

Regarding `COC(=O)[C@H](NC(=O)[C@H]1O[C@@H](O[C@H]2[C@H](OC3CC[C@@]4(C)C(CC[C@]5(C)C4C(=O)C=C4C6C[C@@](C)(C(=O)O)CC[C@]6(C)CC[C@]45C)C3(C)C)O[C@H](C(=O)N[C@@H](C(=O)OC)C(C)C)[C@@H](O)[C@@H]2O)[C@H](O)[C@@H](O)[C@@H]1O)C(C)C` (stereo partly drawn) [Compound 3, 3-O-{2-O-[N-(β-D-Glucopyranosyluronoyl)-D-valinemethyl ester]-N-(β-D-glucopyranosyluronoyl)-D-valinemethyl ester}-(3β, 20β)-11-oxo-30-noroleane-12-ene-30-oic Acid], the IC50 is 6690 nM with DENV2 CprME/JEV SRIPs; 500 nM in the test on DENV2 (setting [1]); 100 to 5980 nM with DENV1 and DENV2 (setting [2]); 120 to 2810 nM with DENV1 and DENV2. Further, in the test with wild-type JEV SRIPs, the “Attachment of wild-type JEV SRIPs onto Vero E6 cells” value is recorded as “did not impede”.
`CCOC(=O)[C@H](Cc1ccccc1)NC(=O)[C@H]1O[C@@H](O[C@H]2[C@H](OC3CC[C@@]4(C)C(CC[C@]5(C)C4C(=O)C=C4C6C[C@@](C)(C(=O)O)CC[C@]6(C)CC[C@]45C)C3(C)C)O[C@H](C(=O)N[C@@H](Cc3ccccc3)C(=O)OCC)[C@@H](O)[C@@H]2O)[C@H](O)[C@@H](O)[C@@H]1O` (stereo partly drawn) [Compound 11, 3-O-{2-O-[N-(β-D-Glucopyranosyluronoyl)-L-phenylalanineethyl ester]-N-(β-D-Glucopyranosyluronoyl)-L-phenylalanineethyl ester}-(3β, 20β)-11-oxo-30-noroleane-12-ene-30-oic Acid]: the IC50 was 2820 nM with DENV2 CprME/JEV SRIPs; 200 nM with DENV2 (setting [1]); 170 nM with DENV2 (read-out: IC50 on the viral yield of DENV2, Vero E6 cells, TCID50 assay, 96 h); 100 to 5980 nM in the test with DENV1 and DENV2 (setting [2]); 180 to 1560 nM with DENV1 and DENV2. Also, the “Attachment of wild-type JEV SRIPs onto Vero E6 cells” value with wild-type JEV SRIPs is “did not impede”.
